Columns and labels:
Assay in all cases: relative viability (nuclei count vs DMSO), 5 days (fraction); higher = more cells survive
[1] = compound: CN1CCN(CC1)C2=CC(=C(C=C2)NC3=NC=C4C(=N3)N(C5=CC=CC=C5C(=O)N4C)C)OC [XMD8-85] + COc1cccc2cc(-c3nc([C@H]4CC[C@H](C(=O)O)CC4)n4ncnc(N)c34)[nH]c12 [OSI-027] (partner 0.5 µM)
Outline: (§1)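 Lung cancer cell lines in 1536-well plates were dosed by pin tool the day after seeding, either with one drug alone or with a fixed anchor-drug dose plus five library-drug doses (not always all listed) in √10 steps. After 5 days, cells were fixed and their nuclei stained in one step (final 0.05% Triton X-100, 1% formaldehyde, 1 ug/ml Hoechst), then counted on 4× images. Relative viability is the nuclei count in treated wells divided by that in vehicle wells. Values are medians of duplicate plates.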

[2] = compound: CN1CCN(CC1)C2=CC(=C(C=C2)NC3=NC=C4C(=N3)N(C5=CC=CC=C5C(=O)N4C)C)OC [XMD8-85] + C[C@@H](Oc1cc(-c2cnn(C3CCNCC3)c2)cnc1N)c1c(Cl)ccc(F)c1Cl [Crizotinib] (partner 1 µM)
Outline: as §1

[3] = compound: O=C(O)C(Cc1ccccc1[N+](=O)[O-])=NNc1nc(-c2ccc(Cl)c(Cl)c2)cs1 (mixture of isomers) [4EGI-1] + COc1cccc2cc(-c3nc([C@H]4CC[C@H](C(=O)O)CC4)n4ncnc(N)c34)[nH]c12 [OSI-027] (partner 0.5 µM)
Outline: as §1

[4] = compound: CN1CCN(CC1)C2=CC(=C(C=C2)NC3=NC=C4C(=N3)N(C5=CC=CC=C5C(=O)N4C)C)OC [XMD8-85] + Nc1ncn([C@H]2C[C@H](O)[C@@H](CO)O2)c(=O)n1 [Decitabine] (partner 2 µM)
Outline: as §1

Cell Line	relative viability ([1]; first compound 0.08 µM)	relative viability ([1]; first compound 0.8 µM)	relative viability ([1]; first compound 2.53 µM)	relative viability ([1]; first compound 8 µM)	relative viability ([2]; first compound 0.08 µM)	relative viability ([2]; first compound 0.253 µM)	relative viability ([2]; first compound 0.8 µM)	relative viability ([2]; first compound 2.53 µM)	relative viability ([2]; first compound 8 µM)	relative viability ([3]; first compound 0.5 µM)	relative viability ([3]; first compound 1.581 µM)	relative viability ([3]; first compound 5 µM)	relative viability ([3]; first compound 15.81 µM)	relative viability ([3]; first compound 50 µM)	relative viability ([4]; first compound 0.08 µM)	relative viability ([4]; first compound 0.253 µM)	relative viability ([4]; first compound 0.8 µM)	relative viability ([4]; first compound 2.53 µM)	relative viability ([4]; first compound 8 µM)	relative viability ([1]; first compound 0.253 µM)
LCLC-97TM1	0.485	0.623	0.565	0.536	0.321	0.569	0.558	0.456	0.333	0.464	0.258	0.527	0.482	0.478	0.222	0.206	0.204	0.284	0.195	–
LCLC-103H	0.428	0.487	–	0.404	0.973	1.07	1.14	1.07	0.761	0.479	0.469	0.482	0.471	0.333	0.789	0.763	0.713	0.688	0.605	0.441
LK-2	0.167	0.185	0.192	0.162	0.232	0.244	0.201	0.226	0.262	0.196	–	0.201	0.182	0.178	0.255	0.295	0.268	0.246	0.232	0.196
LOU-NH91	0.705	0.672	0.827	–	0.749	0.741	0.728	0.725	0.67	0.737	–	0.752	0.432	0.675	0.797	0.852	0.793	0.821	0.646	0.735
LU99A	0.264	0.306	0.33	0.258	0.476	0.484	0.687	0.626	0.367	0.306	0.275	0.269	0.274	0.288	0.919	0.86	1.08	0.769	0.694	0.31
LXF-289	0.758	0.852	0.936	0.579	0.787	0.798	0.809	0.804	0.658	0.825	0.809	0.758	0.756	0.519	0.409	0.371	0.369	0.423	0.352	0.915
NCI-H23	0.589	0.614	0.654	0.409	0.4	0.434	0.472	0.387	0.217	0.612	–	0.614	0.453	0.417	0.306	0.316	0.349	0.32	0.267	0.692
NCI-H322M	0.506	0.571	0.504	0.37	0.872	1.03	0.929	0.996	0.55	0.63	–	0.546	0.532	0.223	0.688	0.659	0.707	0.644	0.606	–
NCI-H358	0.859	0.887	0.92	0.756	0.674	0.465	0.816	0.506	0.248	0.778	0.624	1.08	0.391	0.106	0.219	0.243	0.229	0.234	0.198	0.848
NCI-H441	0.522	0.654	0.699	0.68	0.592	0.648	0.89	0.931	0.485	0.812	0.488	0.653	0.478	0.333	0.256	0.245	0.256	0.261	0.205	0.65
NCI-H460	0.557	0.901	0.731	0.239	0.996	0.83	1.19	0.619	0.0598	0.684	–	0.668	0.3	0.0347	0.442	0.506	0.503	0.566	0.396	0.626
NCI-H520	0.245	0.232	0.257	0.195	0.796	0.572	0.914	0.673	0.324	0.262	0.325	0.314	0.345	0.179	–	0.506	0.496	0.528	0.429	0.257
NCI-H596	0.69	0.773	0.795	–	0.991	0.906	0.875	0.789	0.781	0.844	0.579	0.905	0.62	0.518	0.941	1.01	–	2	0.873	0.918
NCI-H647	0.568	0.667	0.602	0.685	1.12	1.1	1.05	1.14	0.213	0.7	–	0.739	0.671	0.399	0.43	0.357	0.417	0.45	0.327	0.681
NCI-H650	0.564	0.467	0.492	0.338	0.6	0.603	0.712	0.57	0.345	0.6	–	0.565	0.5	0.443	0.336	0.3	0.354	0.309	0.324	0.527
NCI-H661	0.636	0.775	0.806	0.515	1.03	1.16	0.905	1.1	0.854	0.713	0.583	0.649	0.383	0.245	0.589	0.552	0.629	0.62	0.553	0.709
